From patent US7094869B2, “Low molecular weight peptidomimetic growth hormone secretagogues” (Genentech, Inc., priority 1994, dated 2006)
Like-named read-outs stand apart in the source and are kept apart here. Non-standard residues stand in square brackets, D forms with d. Residues, ends and D or L forms follow the SMILES beside them. ξ: configuration not given here. dNMe2Nal = CN[C@H](Cc1ccc2ccccc2c1)C(=O)O; d2Nal = N[C@H](Cc1ccc2ccccc2c1)C(=O)O; ξ2Nal = NC(Cc1ccc2ccccc2c1)C(=O)O; Inp = O=C(O)C1CCNCC1; ξK = NCCCCC(N)C(=O)O; Ava = NCCCCC(=O)O; GABA = NCCCC(=O)O; βAla = NCCC(=O)O

Assays:
[1] = Combination GHRP and IGF-1 treatment of obese Zucker Diabetic Fatty (ZDF) rats; format: in vivo, rat; settings: for body weight gain: obese ZDF male rats, rhGH 500 μg/d
Experimental: Ten lean ZDF rats served as an additional control group.
This GHRP was given by sc. injection twice daily, each dose of 100 μl therefore containing 50 μg/injection or 100 μg/day.
Recombinant human IGF-1 (rhIGF-1) at 13.8 mg/ml in acetate buffer was loaded into osmotic minipumps (Alza, Palo Alto, model 2ML4, pump rate 2.29 μl/hr for 28 days, fill volume 2064 μl). Other pumps were filled with acetate buffer. […] The delivered dose of rhIGF-1 was therefore 758 μg/day. Recombinant human growth hormone (rhGH, Lot R9092AX, Genentech Inc.) was diluted in sterile water to 2.5 g/l and a 100 μl injection given twice daily (250 μg/injection, or 500 μg/day).
The next day the osmotic pumps were inserted into rats. […] All rats not receiving rhIGF-1 containing pumps were implanted with pumps delivering the acetate buffer excipient.
On day 24 blood was withdrawn after a 4 hour fast and 1.5 U/kg of regular insulin was injected i.p. and a second blood sample taken 30 minutes later. The rats were then sacrificed using carbon dioxide, bled from the heart, and organs taken. Serum glucose was measured by standard automated procedures.
Data are presented as mean±standard error (SE) of the mean with 8 rats per group.

[2] = GHRP induced dose dependent weight gain in rats (sc minipump infusion, 14 days); format: in vivo, rat
Experimental: Rat GHRH (1-43) was dissolved in the same buffer at 25 g/l.
The next day these osmotic pumps were inserted into rats.
Serum chemistries were measured by standard automated procedures.

[3] = target: T1, rat pituitary cells (Rattus norvegicus, UniProt O08725); test: Rat “pit” cell challenges: combinations with GHRP-6/GHRH, desensitization, somatostatin suppression, GHRP antagonist; format: cell-based; settings: for GH response compared with control / GH release after sequential 15 min incubations with fresh compound (desensitization): 100 nM; for GH release in combination with GHRH: GHRP 100 nM plus GHRH 10 or 100 nM; for GH release in combination with GHRP-6: both at 100 nM; for GH release in the presence of 20 nM somatostatin: coincubation with 20 nM somatostatin; for GH release after sequential 15 min incubations with fresh compound (desensitization): three sequential 15 min incubations
T1 sequence (O08725 whole entry): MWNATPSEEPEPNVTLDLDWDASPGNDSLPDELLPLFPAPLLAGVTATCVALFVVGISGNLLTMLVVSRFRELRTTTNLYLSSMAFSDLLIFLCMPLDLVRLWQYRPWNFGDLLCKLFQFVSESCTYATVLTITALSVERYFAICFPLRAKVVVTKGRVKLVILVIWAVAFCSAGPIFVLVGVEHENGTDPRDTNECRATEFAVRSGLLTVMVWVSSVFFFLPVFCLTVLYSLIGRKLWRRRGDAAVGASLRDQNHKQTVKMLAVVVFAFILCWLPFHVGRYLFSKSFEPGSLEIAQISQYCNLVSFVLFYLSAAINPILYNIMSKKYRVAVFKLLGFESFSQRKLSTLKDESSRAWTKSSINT
Experimental: Dispersion: Adult female Sprague-Dawley (160-180 g., Charles River) rats were group-caged in a 12:12 light:dark cycle with food and water available ad libitum. Pituitaries from ten rats were removed, the posterior pituitary discarded and the anterior pituitary placed in Hanks' Balanced Salt Solution (HBSS: without calcium chloride, w/o magnesium chloride, w/o magnesium sulfate; Gibco) containing 20 mM HEPES (Gibco) and 100 U/ml penicillin streptomycin (PS: JRH Biosciences). Under sterile conditions, pituitaries were rinsed twice then minced into small fragments with a razor blade. Fragments were resuspended in 5 ml of HBSS/HEPES containing 20 mg collagenase (Serva 17449) and 200 ml of 1 mg/ml DNase (Sigma) for a 40 min. incubation in a 37° C. gyrotory water bath shaker (New Brunswick Scientific Model G76; setting 10). After the incubation, fragments were triturated to yield small clumps and single cells. The cells were centrifuged 1000× g for 5 min, resuspended, counted and plated at a final cell concentration of 100,000 cells/ml. Incubation media was DME low glucose media w/NaHCO3 (Gibco) containing 20 mM hepes, 100 U/ml PS and 10% FBS (Hyclone A-111-L). Cells were plated at 0.5 ml per well in 48 well plates (Falcon) and incubated at 37° C. in 5% C02 for three days. […] The highest concentration of DMSO in media was 0.1%. Stock solutions (1 mM) of rat GHRH, somatostatin (Sigma) and GHRP antagonist HwkWfK were made fresh in media and diluted appropriately. The media used in all challenges and washing steps was DME low glucose with 20 mM Hepes, 100 U/ml PS, 10% FBS. Media was warmed to 37° C. and gassed by placing it into the incubator prior to challenge. On day three, the media was discarded and fresh media (approximately 1 ml) added for the first of three washes. After the last wash, the plate was placed back in the incubator for a 15 min pre-incubation. Then cells were washed 2× (with warmed and gassed media) and fresh 0.5 ml media were added for the second 15 min. pre-incubation. After the second pre-incubation cells were washed 2× as above and 0.5 ml of control and test solutions were added for a final 15 min incubation. After this incubation, the media were removed for subsequent GH ELISA. GH ELISA: A two-site ELISA was used to determine rat GH concentration in the media. Briefly, goat anti-rat GH antibody (lot#19164-20) was used to coat Nunc immunoplates overnight. After blocking and washing, standard (rat GH reference preparation: Parlow) and challenge media is diluted 1:20 prior to GH assay were added for a 1 hr room temperature incubation. STATISTICS: The mean for each group was determined and analyzed by one-way analysis of variance with a post-hoc Student-Newman-Keuls. Significance is defined as P<0.05. The EC50 was calculated using a 4-parameter curve-fit program (Kaleidagraph). Three to four independent EC50s were used to derive the mean and SEM.

[4] = Combination GHRP and IGF-1 treatment of normal rats (7 days); format: in vivo, rat; settings: for body weight gain (in words): 7 days, twice daily sc injections, normal adult female rats, GHRH 300, GHRPs 50, L-692,585 150 μg/dose
Experimental: The rats were weighed on the day of surgery and randomized into 12 groups of 5/group using a grouping program.
The GH secretagogues were given by sc. injection twice daily, each dose of 100 μl. […] Recombinant human IGF-1 (rhIGF-1) at 2.5 mg/ml in acetate buffer was loaded into osmotic minipumps (Alza, Palo Alto, model 2ML1, pump rate 10.16 μl/hr for 7 days, fill volume 2086 μl). Other pumps were filled with acetate buffer. […] The delivered dose of rhIGF-1 was therefore 610 μg/day.
The next day the osmotic pumps were inserted into rats. […] All rats not receiving rhIGF-1 containing pumps were implanted with pumps delivering the acetate buffer excipient. […] The treatment groups were;
The rats were sacrificed using carbon dioxide, bled from the heart and organs taken. Serum chemistries were measured by standard automated procedures.

[5] = target: T1, rat pituitary cells
In short: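 Primary rat anterior pituitary cells, cultured three days in DME low glucose/10% FBS, were washed, pre-incubated twice for 15 min, then challenged 15 min with test compounds (DMSO ≤0.1%) at 37 °C. Released GH was measured by two-site ELISA; EC50 came from 4-parameter fits, mean of three to four independent determinations.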

[6] = test system: growth hormone secretion; test: GHRP induced growth hormone secretion, intravenous administration (Rat IV); format: in vivo; settings: iv injection, serum GH 10 min after injection
In short: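 Female Sprague Dawley rats (24-30 days, 50-90 g) under intraperitoneal pentobarbitone received graded intravenous tail-vein peptide doses in pH 5.0 sodium acetate/mannitol buffer 20 min post-anaesthesia. Blood by cardiac puncture 10 min after dosing; serum GH measured by rat GH ELISA in duplicate.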

[7] = Day 2, GHRP 100 μg/d sc injection, rhIGF-1 758 μg/d pump
[8] = high dose (inip) b b F K-NH2 100 μg/day, GHRH 600 μg/day, 14 d infusion
[9] = read-out: EC50 of the representative GH dose response, single representative experiment, 15 min exposure
[10] = read-out: mean EC50, mean ± SE of independent EC50s
[11] = read-out: PIT Cell EC50, Table IV, formula III compounds, GH release, 15 min incubation
[12] = read-out: PIT Cell EC50, Table III, formula IV compounds, GH release, 15 min incubation

rhIGF-1: Recombinant human insulin-like growth factor-1
body weight gain [1, 7]: 21.5 ± 0.7 g
body weight gain ([1]; day 24, GHRP 100 μg/d, rhIGF-1 758 μg/d): 232 ± 2 g
blood glucose ([1]; rat, in vivo): 1774 mg %
serum insulin ([1]; rat, in vivo): 8 ± 1 ng/mL

GHRH: Rat GHRH (1-43), growth hormone releasing hormone, positive control (HADAIFTSSYRRILGQLYARKLLHEIMNRQQGERNQEQRSRFN; Somatoliberin; UniProt P09916 31-73, looked up) [reference compound]
epiphyseal plate width ([2]; 14 d infusion): no statistically significant increase
pituitary and kidney weight ([2]; 14 d infusion): not affected
liver weight (in words) ([2]; GHRH 600 μg/day, 14 d infusion): significantly increased
heart weight compared to excipient ([2]; high dose 100 μg/day, GHRH 600 μg/day): increased
spleen weight [2, 8]: 624 ± 23 mg
thymus weight [2, 8]: 575 ± 39 mg
body weight gain compared to excipient ([2]; sc minipump 14 days, (inip) b b F K-NH2 4, 20, 100 μg/d, GHRH 600 μg/d, 90 day old female rats): significant body weight and organ weight gain
GH response compared with control [3]: mild GH response
body weight gain (in words) [4]: significant body weight gain

NCCCC[C@H](NC(=O)[C@H](Cc1ccccc1)NC(=O)[C@@H](Cc1ccc2ccccc2c1)NC(=O)[C@@H](Cc1ccc2ccccc2c1)NC(=O)C1CCNCC1)C(N)=O (stereo in doubt) [(inip) b b F K amide, (inip)-DβNal-DβNal-Phe-Lys-amide]
blood glucose ([1]; rat, in vivo): 542±37 mg %

NC(=O)CN(CCc1ccccc1)C(=O)[C@@H](Cc1ccc2ccccc2c1)NC(=O)[C@@H](Cc1ccc2ccccc2c1)NC(=O)C1CCNCC1 [(inip) b b feg amide, (inip)-DβNal-DβNal-(N-2-phenylethyl-Gly) amide]
fold more potent than GHRP-6 ([5]; ratio of pit cell EC50s): ~25 fold
EC50 [5, 9]: 0.09 nM
EC50 [5, 10]: 0.25 ± 0.19 nM
GH response compared with control [3]: significantly greater than control
GH release in combination with GHRH [3]: synergistic
GH release in combination with GHRP-6 [3]: not synergistic
GH release in the presence of 20 nM somatostatin [3]: totally suppressed
GH release after sequential 15 min incubations with fresh compound (desensitization) [3]: markedly decreased
RAT IV ED50 ([6]; Table IV): 1 µg

O=C(N[C@H](Cc1ccc2ccccc2c1)C(=O)N[C@@H](CO)Cc1c[nH]c2ccccc12)C1CCNCC1 [(inip) b wol, (inip)-DβNal-(D-Tryptophanol)]
EC50 [5, 9]: 3.9 nM
EC50 [5, 10]: 10.6 ± 6.2 nM
GH response compared with control [3]: significantly greater than control
GH release in combination with GHRH [3]: synergistic
GH release in combination with GHRP-6 [3]: not synergistic
GH release in the presence of 20 nM somatostatin [3]: totally suppressed
GH release after sequential 15 min incubations with fresh compound (desensitization) [3]: no significant release of GH
RAT IV ED50 ([6]; Table V): 0.8 µg

NC(=O)[C@H](Cc1ccccc1)NC(=O)[C@@H](Cc1ccc2ccccc2c1)NC(=O)[C@@H](Cc1ccc2ccccc2c1)NC(=O)C1CCNCC1 [(inip) b b F amide, (inip)-DβNal-DβNal-Phe-amide] (H-[Inp][d2Nal][d2Nal]F-NH2)
EC50 [5, 11]: 0.28 nM
RAT IV ED50 ([6]; Table IV): 1.7 µg
body weight gain (in words) [4]: significant body weight gain
weight gain ([4]; in 7 days, 50 μg/dose twice daily sc): 36 ± 8 g

CN(C(=O)[C@@H](Cc1ccc2ccccc2c1)NC(=O)C1CCNCC1)[C@H](Cc1ccc2ccccc2c1)C(=O)NCCCCN [(inip) b nmb bam, (inip)-DβNal-(N-Me-DβNal)-[N-(4-aminobutyl)] amide]
EC50 [5, 11]: 0.3 nM
RAT IV ED50 ([6]; Table IV): 1.67 µg
body weight gain (in words) [4]: significant body weight gain

O=C(N[C@H](Cc1ccc2ccccc2c1)C(=O)N[C@H](Cc1ccc2ccccc2c1)C(=O)NC1CCNCC1)C1CCNCC1 [(inip) b b api]
EC50 [5, 11]: 2.7 nM
RAT IV ED50 ([6]; Table IV): 25 µg

rhGH: Recombinant human growth hormone (Lot R9092AX, Genentech Inc.)
body weight gain [1, 7]: 13.6 ± 2.5 g
blood glucose ([1]; rat, in vivo): 725±30 mg %
fasting blood glucose ([1]; rat, in vivo): 504±38 mg %
serum insulin ([1]; rat, in vivo): 48 ± 6 ng/mL

NCCCC[C@H](NC(=O)[C@H](Cc1ccccc1)NC(=O)[C@@H](Cc1ccc2ccccc2c1)NC(=O)[C@@H](Cc1c[nH]c2ccccc12)NC(=O)[C@@H](N)Cc1c[nH]cn1)C(N)=O [H w b F K amide] (H-H[dW][d2Nal]FK-NH2)
EC50 [5, 12]: 15 nM
RAT IV ED50 ([6]; Table III): 50 µg

NC(=O)CCNC(=O)[C@H](Cc1ccccc1)NC(=O)[C@@H](Cc1ccc2ccccc2c1)NC(=O)[C@@H](Cc1ccc2ccccc2c1)NC(=O)C1CCNCC1 [(inip) b b F bA amide] (H-[Inp][d2Nal][d2Nal]F[βAla]-NH2)
EC50 [5, 12]: 0.2 nM
RAT IV ED50 ([6]; Table III): 2 µg

CN(C(=O)C(Cc1ccc2ccccc2c1)NC(=O)C1CCNCC1)[C@H](Cc1ccc2ccccc2c1)C(=O)N[C@@H](Cc1ccccc1)C(=O)NC(CCCCN)C(N)=O (stereo partly drawn) [(inip) b nmb F K amide, (inip)-DβNal-(N-Me-DβNal)-Phe-Lys-amide] (H-[Inp][ξ2Nal][dNMe2Nal]F[ξK]-NH2)
EC50 [5, 12]: 0.2 nM
RAT IV ED50 ([6]; Table III): 1 µg

CN(C(=O)[C@@H](Cc1ccc2ccccc2c1)NC(=O)CCCCN)[C@H](Cc1ccc2ccccc2c1)C(=O)N[C@@H](Cc1ccccc1)C(=O)N[C@@H](CCCCN)C(N)=O [(Ava) b nmb F K amide] (H-[Ava][d2Nal][dNMe2Nal]FK-NH2)
EC50 [5, 12]: 3.8 nM
RAT IV ED50 ([6]; Table III): 100 µg

NCCCCC(=O)N[C@H](Cc1ccc2ccccc2c1)C(=O)N[C@H](Cc1ccc2ccccc2c1)C(=O)N[C@@H](Cc1ccccc1)C(=O)N[C@@H](CCCCN)C(=O)N[C@@H](Cc1ccc(O)cc1)C(N)=O [(Ava) b b F K Y amide] (H-[Ava][d2Nal][d2Nal]FKY-NH2)
EC50 [5, 12]: 13.6 nM
RAT IV ED50 ([6]; Table III): 20 µg

NCCCNC(=O)[C@H](Cc1ccc2ccccc2c1)NC(=O)[C@@H](Cc1ccc2ccccc2c1)NC(=O)[C@@H](Cc1ccc2ccccc2c1)NC(=O)CCCN [(Ab) b b B ram, (4-Aminobutanoyl)-DβNal-DβNal-βNal-[N-(3-aminopropyl)] Amide]
EC50 [5, 12]: 2.4 nM
RAT IV ED50 ([6]; Table III): 10 µg

NCCCC[C@H](NC(=O)[C@H](Cc1ccccc1)NC(=O)[C@@H](Cc1ccc2ccccc2c1)NC(=O)[C@@H](Cc1ccc2ccccc2c1)NC(=O)[C@@H](N)Cc1c[nH]cn1)C(N)=O [H b b F K amide] (H-H[d2Nal][d2Nal]FK-NH2)
EC50 [5, 12]: 2.4 nM
RAT IV ED50 ([6]; Table III): 15.4 µg

NCCCC(=O)N[C@H](Cc1ccc2ccccc2c1)C(=O)N[C@H](Cc1ccc2ccccc2c1)C(=O)N[C@@H](Cc1ccccc1)C(N)=O [(Ab) b b F amide] (H-[GABA][d2Nal][d2Nal]F-NH2)
EC50 [5, 11]: 3.1 nM
RAT IV ED50 ([6]; Table IV): 10 µg
